Source: patent publication US20250313548A1 (Actio Biosciences, Inc., priority 2023, published 2025)

Molecular target: human, KCNT1 (Homo sapiens (Human), UniProt Q5JUK3)
Test: FLIPR Tl/K Flux Assay
Format: cell-based
Details: HEK293 cells stably expressing human KCNT1; Tl+ flux stimulated with EC80 of agonist Loxapine
Outline: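 HEK293 cells stably expressing human KCNT1 were loaded with FLIPR potassium dye in HEPES/HBSS pH 7.4 with 5 mM probenecid, 1 h at 25 °C, then given test compound for 30 min at 25 °C. Tl+ flux was triggered with chloride-free buffer containing Tl+ and EC80 loxapine and read 160 s. IC50 came from Hill fits of % inhibition.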

human, KCNT1, sequence (Q5JUK3 whole entry): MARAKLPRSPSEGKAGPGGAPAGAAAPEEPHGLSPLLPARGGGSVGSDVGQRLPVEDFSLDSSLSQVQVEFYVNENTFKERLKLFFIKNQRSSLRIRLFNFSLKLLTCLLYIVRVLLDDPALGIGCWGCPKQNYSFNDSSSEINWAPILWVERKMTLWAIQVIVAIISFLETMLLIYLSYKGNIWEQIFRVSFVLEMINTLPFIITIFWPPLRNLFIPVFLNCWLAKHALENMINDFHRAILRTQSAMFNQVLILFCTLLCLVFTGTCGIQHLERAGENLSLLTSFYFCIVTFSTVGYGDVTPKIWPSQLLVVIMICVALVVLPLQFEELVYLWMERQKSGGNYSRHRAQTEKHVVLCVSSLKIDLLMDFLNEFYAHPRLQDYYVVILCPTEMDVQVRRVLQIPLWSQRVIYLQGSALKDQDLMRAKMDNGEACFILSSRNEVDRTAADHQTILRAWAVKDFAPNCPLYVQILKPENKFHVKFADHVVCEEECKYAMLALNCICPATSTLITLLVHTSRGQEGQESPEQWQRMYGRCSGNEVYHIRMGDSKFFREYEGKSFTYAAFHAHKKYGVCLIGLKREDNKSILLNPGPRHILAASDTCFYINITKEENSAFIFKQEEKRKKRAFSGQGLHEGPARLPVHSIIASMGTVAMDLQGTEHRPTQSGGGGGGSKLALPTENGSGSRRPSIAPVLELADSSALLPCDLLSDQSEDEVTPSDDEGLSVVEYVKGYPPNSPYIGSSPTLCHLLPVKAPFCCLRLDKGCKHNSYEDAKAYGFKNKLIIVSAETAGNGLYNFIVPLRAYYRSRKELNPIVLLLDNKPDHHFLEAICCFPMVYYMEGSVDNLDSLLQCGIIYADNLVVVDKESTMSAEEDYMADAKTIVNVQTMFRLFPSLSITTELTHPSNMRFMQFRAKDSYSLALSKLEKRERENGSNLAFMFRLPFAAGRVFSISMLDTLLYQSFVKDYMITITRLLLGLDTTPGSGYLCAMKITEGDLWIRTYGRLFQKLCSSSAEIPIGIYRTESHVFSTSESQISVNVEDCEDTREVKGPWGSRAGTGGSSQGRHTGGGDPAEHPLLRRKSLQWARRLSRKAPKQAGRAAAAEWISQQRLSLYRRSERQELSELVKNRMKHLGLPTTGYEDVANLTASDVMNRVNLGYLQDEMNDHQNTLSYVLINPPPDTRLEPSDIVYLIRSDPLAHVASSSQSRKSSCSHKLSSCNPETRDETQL

SMILES | IC50
N#Cc1cc(Cl)cc(C(=O)N[C@H]2CCCn3nc(-c4ccnc(C(F)(F)F)c4)cc32)c1 [Compound I-458a] | < 250 nM
Cn1nc(C(F)(F)F)cc1C(=O)N[C@H]1CCCn2nc(-c3ccnc(C4(C)CC4)c3)cc21 [Compound I-459a] | < 250 nM
Cn1nc(C(F)(F)F)cc1C(=O)N[C@H]1CCc2ncc(-c3ccnc(C(F)(F)F)c3)cc21 [Compound I-460a] | > 1000 nM
O=C(N[C@H]1CCCc2cnc(-c3ccnc(C(F)(F)F)c3)cc21)c1cc(F)cc(F)c1 [Compound I-461a] | < 250 nM
O=C(N[C@H]1CCc2nn(-c3ccnc(C4CC4)c3)cc21)c1cc(F)cc(F)c1 [Compound I-462a] | < 250 nM
N#Cc1cccc(C(=O)NC2CCCCC3NC(c4ccnc(C(F)(F)F)c4)=NC23)c1 (stereo not shown) [Compound I-463] | > 1000 nM
COc1cc(C2=NC3C(NC(=O)c4cccc(C#N)c4)CCCCC3N2)ccn1 (stereo not shown) [Compound I-464] | > 1000 nM
Cn1nc(C(F)(F)F)cc1C(=O)NC1CCCn2nc(-c3ccnc(C(F)(F)F)c3)cc2C1 (stereo not shown) [Compound I-465] | < 250 nM
Cn1nc(C(F)(F)F)cc1C(=O)NC1CCn2nc(-c3ccnc(C(F)(F)F)c3)cc2C1 (stereo not shown) [Compound I-468] | < 250 nM
Cn1nc(C(F)(F)F)cc1C(=O)NC1Cc2cc(-c3ccnc(C(F)(F)F)c3)nn2C1 (stereo not shown) [Compound I-469] | < 250 nM
N#Cc1cc(F)cc(C(=O)N[C@@H]2CCCCn3nc(-c4ccnc(C5CC5)c4)cc32)c1 [Compound I-470b] | < 250 nM
COc1cc(-c2nc3c(o2)CCC[C@H]3NC(=O)c2cncc(C(F)(F)F)n2)ccn1 [Compound I-471b] | 500 to 1000 nM
Cc1cnc(C(F)(F)F)cc1-c1cc2n(n1)CC[C@H]2NC(=O)c1cc(C(F)(F)F)nn1C [Compound I-472b] | > 1000 nM
COc1cc(-c2nc3n(n2)CCC[C@H]3NC(=O)c2cc(C(F)(F)F)nn2C)ccn1 [Compound I-474b] | > 1000 nM
Cn1nc(C(F)(F)F)cc1C(=O)N[C@@H]1CCCc2cc(-c3ccnc(C(F)(F)F)c3)[nH]c21 [Compound I-475b] | > 1000 nM
Cn1nc(C(F)(F)F)cc1C(=O)N[C@@H]1CCCCn2nc(-c3cc(C(F)(F)F)ncc3F)cc21 [Compound I-476b] | 250 to 500 nM
N#Cc1cccc(C(=O)NC2CCCCC3OC(c4ccnc(C(F)(F)F)c4)=NC23)c1 (stereo not shown) [Compound I-477] | < 250 nM
O=C(NC1CCc2cnc(-c3ccnc(C(F)(F)F)c3)cc21)c1cc(F)cc(F)c1 (stereo not shown) [Compound I-478] | < 250 nM
Cn1nc(C(F)(F)F)nc1C(=O)N[C@@H]1CCn2nc(-c3ccnc(C(C)(F)F)c3)cc21 [Compound I-480b] | 500 to 1000 nM
Cn1nc(C(F)(F)F)nc1C(=O)N[C@@H]1CCn2nc(-c3cc(C(F)(F)F)ncc3Cl)cc21 [Compound I-481b] | 250 to 500 nM
Cc1cnc(C(F)(F)F)cc1-c1cc2n(n1)CC[C@H]2NC(=O)c1nc(C(F)(F)F)nn1C [Compound I-482b] | 500 to 1000 nM
Cn1nc(C(F)(F)F)nc1C(=O)N[C@H]1CCn2nc(-c3cc(C4CC4)ncc3F)cc21 [Compound I-483a, (S)—N-(2-(2-Cyclopropyl-5-fluoropyridin-4-yl)-5,6-dihydro-4H-pyrrolo[1,2-b]pyrazol-4-yl)-1-methyl-3-(trifluoromethyl)-1H-1,2,4-triazole-5-carboxamide] | < 250 nM
O=C(N[C@H]1CCn2nc(-c3ccnc(C(F)(F)F)c3)cc21)c1cn(C(F)(F)F)nc1C(F)F [Compound I-484a, (S)-3-(Difluoromethyl)-1-(trifluoromethyl)-N-(2-(2-(trifluoromethyl)pyridin-4-yl)-5,6-dihydro-4H-pyrrolo[1,2-b]pyrazol-4-yl)-1H-pyrazole-4-carboxamide] | < 250 nM
COc1cc(C(=O)N[C@@H]2CCn3nc(-c4cc(C(F)(F)F)ncc4F)cc32)ccn1 [Compound I-485b] | < 250 nM
Cc1cc(C#N)cc(C(=O)N[C@@H]2CCn3nc(-c4cc(C(F)(F)F)ncc4F)cc32)c1 [Compound I-486b] | 250 to 500 nM
